#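 Each compound was tested at five concentrations against cells in 96-well plates for 48 hours. GI50 is the concentration that inhibits growth by half.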 Calls of active or inactive are those of the source. No stated cut-off is given here; in the data, active = GI50 up to about 1.1 µM and inactive = higher.
# How the values were obtained:
# Assay in all cases: DTP human tumour cell line panel, 48 h
# EKVX = tested on: EKVX
# DMS-114 = tested on: DMS-114
# HCT-116 = tested on: HCT-116
# NCI-H522 = tested on: NCI-H522
# LXFL 529 = tested on: LXFL 529
# RXF 631 = tested on: RXF 631
# SK-OV-3 = tested on: SK-OV-3
# SF-268 = tested on: SF-268
# HL-60 = tested on: HL-60
# DLD-1 = tested on: DLD-1
# SN12C = tested on: SN12C
# UO-31 = tested on: UO-31
# SNB-78 = tested on: SNB-78
# K562 = tested on: K562
# CCRF-CEM = tested on: CCRF-CEM
# SF-539 = tested on: SF-539
# KM12 = tested on: KM12
# Malme-3M = tested on: Malme-3M
# MOLT-4 = tested on: MOLT-4
# UACC-62 = tested on: UACC-62
# OVCAR-3 = tested on: OVCAR-3
# LOX IMVI = tested on: LOX IMVI
# SK-MEL-2 = tested on: SK-MEL-2
# UACC-257 = tested on: UACC-257
# M19-MEL = tested on: M19-MEL
# TK-10 = tested on: TK-10
# HCT-15 = tested on: HCT-15
# HCC 2998 = tested on: HCC 2998
# NCI-H460 = tested on: NCI-H460
# SK-MEL-28 = tested on: SK-MEL-28
# SNB-75 = tested on: SNB-75
# U-251 = tested on: U-251
# OVCAR-5 = tested on: OVCAR-5
# ACHN = tested on: ACHN
# OVCAR-4 = tested on: OVCAR-4
# HOP-62 = tested on: HOP-62
# SNB-19 = tested on: SNB-19
# XF498 = tested on: XF498
# NCI-H23 = tested on: NCI-H23
# SR = tested on: SR
# HT-29 = tested on: HT-29
# A498 = tested on: A498
# M14 = tested on: M14
# RXF 393 = tested on: RXF 393
# HOP-92 = tested on: HOP-92
# SF-295 = tested on: SF-295
# IGROV-1 = tested on: IGROV-1
# SW-620 = tested on: SW-620
# NCI-H226 = tested on: NCI-H226
# KM-20L2 = tested on: KM-20L2
# DMS-273 = tested on: DMS-273
# RPMI-8226 = tested on: RPMI-8226
# 786-0 = tested on: 786-0
# OVCAR-8 = tested on: OVCAR-8
# COLO 205 = tested on: COLO 205
# A549 = tested on: A549
# SK-MEL-5 = tested on: SK-MEL-5
smiles,measurement,setting,value
COC(=O)C(=O)Cc1nc2ccccc2o1,GI50,EKVX,> 100 µM (inactive)
same,GI50,DMS-114,> 100 µM (inactive)
same,GI50,HCT-116,> 100 µM (inactive)
same,GI50,NCI-H522,> 100 µM (inactive)
same,GI50,LXFL 529,> 100 µM (inactive)
same,GI50,RXF 631,> 100 µM (inactive)
same,GI50,SK-OV-3,> 100 µM (inactive)
same,GI50,SF-268,> 100 µM (inactive)
same,GI50,HL-60,> 100 µM (inactive)
same,GI50,DLD-1,> 100 µM (inactive)
same,GI50,SN12C,> 100 µM (inactive)
same,GI50,UO-31,> 100 µM (inactive)
same,GI50,SNB-78,> 100 µM (inactive)
same,GI50,K562,> 100 µM (inactive)
same,GI50,CCRF-CEM,> 100 µM (inactive)
same,GI50,SF-539,> 100 µM (inactive)
same,GI50,KM12,> 100 µM (inactive)
same,GI50,Malme-3M,> 100 µM (inactive)
same,GI50,MOLT-4,> 100 µM (inactive)
same,GI50,UACC-62,> 100 µM (inactive)
same,GI50,OVCAR-3,> 100 µM (inactive)
same,GI50,LOX IMVI,> 100 µM (inactive)
same,GI50,SK-MEL-2,> 100 µM (inactive)
same,GI50,UACC-257,> 100 µM (inactive)
same,GI50,M19-MEL,> 100 µM (inactive)
same,GI50,TK-10,> 100 µM (inactive)
same,GI50,HCT-15,> 100 µM
same,GI50,HCC 2998,> 100 µM (inactive)
same,GI50,NCI-H460,> 100 µM (inactive)
same,GI50,SK-MEL-28,> 100 µM (inactive)
same,GI50,SNB-75,> 100 µM (inactive)
same,GI50,U-251,> 100 µM (inactive)
same,GI50,OVCAR-5,> 100 µM (inactive)
same,GI50,ACHN,> 100 µM (inactive)
same,GI50,OVCAR-4,> 100 µM (inactive)
same,GI50,HOP-62,> 100 µM (inactive)
same,GI50,SNB-19,> 100 µM (inactive)
same,GI50,XF498,> 100 µM (inactive)
same,GI50,NCI-H23,> 100 µM (inactive)
same,GI50,SR,> 100 µM (inactive)
same,GI50,HT-29,> 100 µM (inactive)
same,GI50,A498,> 100 µM (inactive)
same,GI50,M14,> 100 µM (inactive)
same,GI50,RXF 393,> 100 µM (inactive)
C/C(CC(=O)Nc1ccc(C)cc1C)=N/N=C(N)N,GI50,EKVX,> 100 µM (inactive)
same,GI50,DMS-114,> 100 µM (inactive)
same,GI50,HCT-116,> 100 µM (inactive)
same,GI50,HOP-92,> 100 µM (inactive)
same,GI50,NCI-H522,> 100 µM (inactive)
same,GI50,LXFL 529,> 100 µM (inactive)
same,GI50,RXF 631,> 100 µM (inactive)
same,GI50,SF-295,> 100 µM (inactive)
same,GI50,SK-OV-3,> 100 µM (inactive)
same,GI50,SF-268,> 100 µM (inactive)
same,GI50,IGROV-1,> 100 µM (inactive)
same,GI50,HL-60,> 100 µM (inactive)
same,GI50,SW-620,> 100 µM (inactive)
same,GI50,DLD-1,> 100 µM (inactive)
same,GI50,UO-31,> 100 µM (inactive)
same,GI50,SNB-78,> 100 µM (inactive)
same,GI50,K562,> 100 µM (inactive)
same,GI50,NCI-H226,> 100 µM (inactive)
same,GI50,CCRF-CEM,> 100 µM (inactive)
same,GI50,SF-539,> 100 µM (inactive)
same,GI50,KM12,> 100 µM (inactive)
same,GI50,Malme-3M,> 100 µM (inactive)
same,GI50,KM-20L2,> 100 µM (inactive)
same,GI50,MOLT-4,> 100 µM (inactive)
same,GI50,DMS-273,> 100 µM (inactive)
same,GI50,UACC-62,> 100 µM (inactive)
same,GI50,OVCAR-3,> 100 µM (inactive)
same,GI50,LOX IMVI,> 100 µM (inactive)
same,GI50,SK-MEL-2,> 100 µM (inactive)
same,GI50,UACC-257,> 100 µM (inactive)
same,GI50,M19-MEL,> 100 µM (inactive)
same,GI50,TK-10,> 100 µM (inactive)
same,GI50,HCC 2998,> 100 µM (inactive)
same,GI50,RPMI-8226,> 100 µM (inactive)
same,GI50,NCI-H460,> 100 µM (inactive)
same,GI50,SK-MEL-28,> 100 µM (inactive)
same,GI50,786-0,> 100 µM (inactive)
same,GI50,SNB-75,> 100 µM (inactive)
same,GI50,U-251,> 100 µM (inactive)
same,GI50,OVCAR-8,> 100 µM (inactive)
same,GI50,OVCAR-5,> 100 µM (inactive)
same,GI50,COLO 205,> 100 µM (inactive)
same,GI50,ACHN,> 100 µM (inactive)
same,GI50,HOP-62,> 100 µM (inactive)
same,GI50,XF498,> 100 µM (inactive)
same,GI50,NCI-H23,> 100 µM (inactive)
same,GI50,HT-29,> 100 µM (inactive)
same,GI50,A549,> 100 µM (inactive)
same,GI50,A498,> 100 µM (inactive)
same,GI50,M14,> 100 µM (inactive)
same,GI50,RXF 393,> 100 µM (inactive)
same,GI50,SK-MEL-5,> 100 µM (inactive)
CC1(Cl)CCC2(CC(Br)=CC3OC32C)CC1Br (stereo unspecified),GI50,EKVX,52.6 µM (inactive)
same,GI50,DMS-114,29.4 µM (inactive)
same,GI50,HCT-116,18.2 µM (inactive)
same,GI50,HOP-92,24.9 µM (inactive)
same,GI50,NCI-H522,23.9 µM (inactive)
same,GI50,RXF 631,> 10 µM (inactive)
same,GI50,SF-295,22.6 µM (inactive)
same,GI50,SK-OV-3,51.8 µM (inactive)
same,GI50,SF-268,19.2 µM (inactive)
same,GI50,IGROV-1,42.9 µM (inactive)
same,GI50,HL-60,15.2 µM (inactive)
same,GI50,UO-31,28.6 µM (inactive)
same,GI50,SNB-78,12.4 µM (inactive)
same,GI50,NCI-H226,23.2 µM (inactive)
same,GI50,CCRF-CEM,18.6 µM (inactive)
same,GI50,KM12,32.5 µM (inactive)
same,GI50,MOLT-4,17 µM (inactive)
same,GI50,UACC-62,19.2 µM (inactive)
same,GI50,UACC-257,18.4 µM (inactive)
same,GI50,M19-MEL,32.3 µM (inactive)
same,GI50,TK-10,46.6 µM (inactive)
same,GI50,NCI-H460,27.1 µM (inactive)
same,GI50,SK-MEL-28,23.6 µM (inactive)
same,GI50,U-251,19 µM (inactive)
same,GI50,OVCAR-8,30.8 µM (inactive)
same,GI50,OVCAR-5,79.4 µM (inactive)
same,GI50,HOP-62,39.4 µM (inactive)
same,GI50,SNB-19,45 µM (inactive)
same,GI50,NCI-H23,20.1 µM (inactive)
same,GI50,SR,20.7 µM (inactive)
same,GI50,HT-29,17.9 µM (inactive)
same,GI50,A549,28.6 µM (inactive)
same,GI50,A498,26.6 µM (inactive)
same,GI50,M14,43.2 µM (inactive)
same,GI50,RXF 393,18.3 µM (inactive)

# From ChEMBL document CHEMBL1201862, “PubChem BioAssay data set” (2004)
